Data on 31 compounds can be found in patent US12600709B2, “Nonpeptide somatostatin type 5 receptor agonists and uses thereof” (Crinetics Pharmaceuticals, Inc., priority 2019, dated 2026).

pEC50: −log10 of the molar value.

T1 sequence (P35346 whole entry): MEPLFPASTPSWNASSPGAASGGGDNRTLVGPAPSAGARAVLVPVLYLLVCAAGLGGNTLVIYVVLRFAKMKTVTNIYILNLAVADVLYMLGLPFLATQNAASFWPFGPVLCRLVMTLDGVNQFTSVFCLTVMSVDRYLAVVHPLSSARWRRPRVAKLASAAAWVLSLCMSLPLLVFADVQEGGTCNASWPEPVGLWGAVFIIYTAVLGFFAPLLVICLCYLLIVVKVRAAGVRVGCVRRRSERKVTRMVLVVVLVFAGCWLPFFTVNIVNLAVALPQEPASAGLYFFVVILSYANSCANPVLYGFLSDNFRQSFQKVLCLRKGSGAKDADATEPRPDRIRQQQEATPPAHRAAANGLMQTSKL

This assay has as its target T1, human somatostatin receptor subtype 5 (Homo sapiens, UniProt P35346).
T1 construct: expressed in transfected cells
Kind of assay: cAMP assay for SST5R (inhibition of cAMP in CHO-K1 cells). The format is cell-based. The conditions noted are these: Table A; inhibition of cAMP via human SST5 receptor; read-out: SST5 potency. The text has this: General overview: All five SSTR subtypes are Gi coupled G-protein coupled receptors (GPCRs) that lead to decreases in intracellular cyclic AMP (cAMP) when activated by an agonist. Therefore, measurement of intracellular cAMP levels can be used to assess whether compounds of the invention are agonists of SSTR subtypes (John Kelly, Troy Stevens, W. Joseph Thompson, and Roland Seifert, Current Protocols in Pharmacology, 2005, 2.2.1-2.2). One example of an intracellular cAMP assay is described below.
cAMP Assay Protocol for SST5R:
Four days prior to the assay, 2,000 Chinese hamster ovary cells (CHO-K1, ATCC #CCL-61) stably expressing the human somatostatin receptor subtype 5 are plated in each well of a 96-well tissue culture-treated plate in Ham's F12 growth media (ThermoFisher #10-080-CM) supplemented with 10% donor bovine serum (Gemini Bio-Products #100-506), 100 U/mL penicillin; 100 µg/mL streptomycin; 2 mM L-glutamine (Gemini Bio-Products #400-110) and 0.25 mg/mL G418 Sulfate (GoldBio #108321-42-2). The cells are cultured at 37° C., 5% CO2 and 95% humidity. On the day of the assay, the media is aspirated and the cells are treated with 50 μL of 1.6 μM NKH477 (Sigma #N3290) plus various dilutions of compounds of the invention in assay buffer [1× Hank's Balanced Salt Solution (ThermoFisher #SH3058802), 0.5 mM HEPES pH 7.4, 0.1% bovine serum albumin, 0.2 mM 3-Isobutyl-1-methylxanthine (IBMX, VWR #200002-790)]. The cells are incubated for 20 minutes at 37° C. […] The cells are treated with 50 μL of lysis buffer (HRTF cAMP kit, Cisbio) for 30 minutes and then the lysate is diluted to 250 μL with assay buffer. The lysate is transferred to 384-well plates and cAMP detection and visualization antibodies are added and incubated for 1-24 hours at room temperature. The time-resolved fluorescent signal is read with a Tecan M1000Pro multiplate reader. The intracellular cAMP concentrations are calculated by regression to a standard curve and are plotted vs. the concentration of the compounds of the invention and the EC50 of the compounds are calculated using standard methods. All data manipulations are in GraphPad Prism v6 or v7.
In general terms: cAMP levels reflect the balance of adenylyl cyclase and phosphodiesterase activity.
`C[C@]1(N)CCN(c2c(C(=O)N[C@@H]3CCCC[C@H]3F)cncc2-c2cc(F)cc(F)c2)C1` (mixture of isomers) [1-52, 4-[(3S)-3-amino-3-methylpyrrolidin-1-yl]-5-(3,5-difluorophenyl)-N-[trans-2-fluorocyclohexyl]pyridine-3-carboxamide]: the pEC50 is more than 8.00.

In the case of `C[C@]1(N)CCN(c2c(C(=O)N[C@@H]3CCCC[C@@H]3F)cncc2-c2cc(F)cc(F)c2)C1` (mixture of isomers) [1-83, 4-[(3S)-3-amino-3-methylpyrrolidin-1-yl]-5-(3,5-difluorophenyl)-N-[cis-2-fluorocyclohexyl]pyridine-3-carboxamide], the pEC50 is more than 8.00.

Regarding `N#Cc1ncc(C(=O)NC23CC(C2)C3)c(N2CC[C@](N)(CO)C2)c1-c1cc(F)cc(F)c1` (single isomer, unassigned) [1-99], the pEC50 is less than 6.00.

As to `N#Cc1ncc(C(=O)NC23CC(C2)C3)c(N2C[C@H](N)[C@@H](F)C2)c1-c1cc(F)cc(F)c1` (single isomer, unassigned) [1-102], the pEC50 was 7.00 to 8.00.

For the compound `C[C@H](NC(=O)c1cnc(C#N)c(-c2cc(F)cc(F)c2)c1N1CC[C@@](N)(CC(F)F)C1)C1CC1` (single isomer, unassigned) [1-119], the pEC50 is 6.00 to 7.00.

For `C[C@H](NC(=O)c1cnc(C#N)c(-c2cc(F)cc(F)c2)c1N1C[C@H](N)[C@@H](F)C1)C1CC1` (single isomer, unassigned) [1-136], the pEC50 is 7.00 to 8.00.

For the compound `C[C@H](NC(=O)c1cnc(C#N)c(-c2cc(F)cc(Cl)c2)c1N1C[C@H](N)[C@@H](F)C1)C1CC1` (single isomer, unassigned) [1-139], the pEC50 is more than 8.00.

For the compound `C[C@H](NC(=O)c1cnc(C#N)c(-c2cc(F)cc(F)c2)c1N1CC[C@@](N)(CF)C1)C1CC1` (single isomer, unassigned) [1-220], the pEC50 is more than 8.00.

Take `C[C@H](NC(=O)c1cnc(C#N)c(-c2cc(F)cc(F)c2)c1N1CC[C@](N)(CF)C1)C1CC1` (single isomer, unassigned) [1-221]: the pEC50 was 7.00 to 8.00.

Regarding `COc1ncc(C(=O)N[C@@H](C)C(F)(F)F)c(N2CC[C@](C)(N)C2)c1Br` (single isomer, unassigned) [1-274], the pEC50 was less than 6.00.

On to `N#Cc1cccc(-c2cncc(C(=O)NC3CCCCC3)c2N2CC[C@H](N)C2)c1` [1-7, 4-[(3S)-3-aminopyrrolidin-1-yl]-5-(3-cyanophenyl)-N-cyclohexylpyridine-3-carboxamide], for which the pEC50 is 6.00 to 7.00.

As for `CC1(NC(=O)c2cncc(-c3cccc(C#N)c3)c2N2CC[C@H](N)C2)CCC1` [1-8, 4-[(3S)-3-aminopyrrolidin-1-yl]-5-(3-cyanophenyl)-N-(1-methylcyclobutyl)pyridine-3-carboxamide], the pEC50 was 6.00 to 7.00.

As to `N#Cc1cccc(-c2cncc(C(=O)NCc3ccccc3)c2N2CC[C@H](N)C2)c1` [1-9, 4-[(3S)-3-aminopyrrolidin-1-yl]-N-benzyl-5-(3-cyanophenyl)pyridine-3-carboxamide], the pEC50 was 6.00 to 7.00.

Turning to `Cc1cc(C)cc(-c2cncc(C(=O)NC3CCCC(F)(F)C3)c2N2CC[C@](C)(N)C2)c1` (stereo partly drawn) [1-14, 4-[(3S)-3-amino-3-methylpyrrolidin-1-yl]-N-(3,3-difluorocyclohexyl)-5-(3,5-dimethylphenyl)pyridine-3-carboxamide], the pEC50 is more than 8.00.

For `Cc1cc(F)cc(-c2cncc(C(=O)NC3(C(F)(F)F)CCCC3)c2N2CC[C@](C)(N)C2)c1` [1-15, 4-[(3S)-3-amino-3-methylpyrrolidin-1-yl]-5-(3-fluoro-5-methylphenyl)-N-[1-(trifluoromethyl)cyclopentyl]pyridine-3-carboxamide], the pEC50 is more than 8.00.

As to `Cc1cc(F)cc(-c2cncc(C(=O)NC3C4CC5CC(C4)CC3C5)c2N2CC[C@](C)(N)C2)c1` (stereo partly drawn) [1-18, N-(adamantan-2-yl)-4-[(3S)-3-amino-3-methylpyrrolidin-1-yl]-5-(3-fluoro-5-methylphenyl)pyridine-3-carboxamide], the pEC50 is 7.00 to 8.00.

For `C[C@]1(N)CCN(c2c(C(=O)NC3CC3)cncc2-c2cc(F)cc(F)c2)C1` [1-23, 4-[(3S)-3-amino-3-methylpyrrolidin-1-yl]-N-cyclopropyl-5-(3,5-difluorophenyl)pyridine-3-carboxamide], the pEC50 was 7.00 to 8.00.

With `Cc1cc(F)cc(-c2cncc(C(=O)NCC3CC3)c2N2CC[C@](C)(N)C2)c1` [1-26, 4-[(3S)-3-amino-3-methylpyrrolidin-1-yl]-N-(cyclopropylmethyl)-5-(3-fluoro-5-methylphenyl)pyridine-3-carboxamide], the pEC50 was more than 8.00.

In the case of `Cc1cc(F)cc(-c2cncc(C(=O)Nc3ccn(C)n3)c2N2CC[C@](C)(N)C2)c1` [1-27, 4-[(3S)-3-amino-3-methylpyrrolidin-1-yl]-5-(3-fluoro-5-methylphenyl)-N-(1-methyl-1H-pyrazol-3-yl)pyridine-3-carboxamide], the pEC50 is more than 8.00.

For the compound `C[C@]1(N)CCN(c2c(C(=O)NCC(F)(F)F)cncc2-c2cc(F)cc(F)c2)C1` [1-28, 4-[(3S)-3-amino-3-methylpyrrolidin-1-yl]-5-(3,5-difluorophenyl)-N-(2,2,2-trifluoroethyl)pyridine-3-carboxamide], the pEC50 is 7.00 to 8.00.

`CC(C)(C)NC(=O)c1cncc(-c2cc(F)cc(F)c2)c1N1CC[C@](C)(N)C1` [1-29, 4-[(3S)-3-amino-3-methylpyrrolidin-1-yl]-N-tert-butyl-5-(3,5-difluorophenyl)pyridine-3-carboxamide]: the pEC50 is 7.00 to 8.00.

Turning to `CC1(CNC(=O)c2cncc(-c3cc(F)cc(F)c3)c2N2CC[C@](C)(N)C2)CC1` [1-32, 4-[(3S)-3-amino-3-methylpyrrolidin-1-yl]-5-(3,5-difluorophenyl)-N-[(1-methylcyclopropyl)methyl]pyridine-3-carboxamide], the pEC50 was more than 8.00.

`C[C@]1(N)CCN(c2c(C(=O)NCC3CCC3)cncc2-c2cc(F)cc(F)c2)C1` [1-33, 4-[(3S)-3-amino-3-methylpyrrolidin-1-yl]-N-(cyclobutylmethyl)-5-(3,5-difluorophenyl)pyridine-3-carboxamide]: the pEC50 was more than 8.00.

Regarding `COCC1(N)CCN(c2c(C(=O)NC34CC(C3)C4)cncc2-c2cc(F)cc(F)c2)C1` (stereo not shown) [1-36, 4-[3-amino-3-(methoxymethyl)pyrrolidin-1-yl]-N—{bicyclo[1.1.1]pentan-1-yl}-5-(3,5-difluorophenyl)pyridine-3-carboxamide], the pEC50 was 7.00 to 8.00.

For `N[C@@H]1CN(c2c(C(=O)NC34CC(C3)C4)cncc2-c2cc(F)cc(F)c2)C[C@H]1F` [1-37, 4-[(3R,4R)-3-amino-4-fluoropyrrolidin-1-yl]-N-{bicyclo[1.1.1]pentan-1-yl}-5-(3,5-difluorophenyl)pyridine-3-carboxamide], the pEC50 is 7.00 to 8.00.

In the case of `CC(C)C(C)NC(=O)c1cncc(-c2cc(F)cc(F)c2)c1N1CC[C@](C)(N)C1` (stereo partly drawn) [1-38, 4-[(3S)-3-amino-3-methylpyrrolidin-1-yl]-5-(3,5-difluorophenyl)-N-(3-methylbutan-2-yl)pyridine-3-carboxamide], the pEC50 was more than 8.00.

Turning to `CC(C)C(NC(=O)c1cncc(-c2cc(F)cc(F)c2)c1N1CC[C@](C)(N)C1)C(C)C` [1-39, 4-[(3S)-3-amino-3-methylpyrrolidin-1-yl]-5-(3,5-difluorophenyl)-N-(2,4-dimethylpentan-3-yl)pyridine-3-carboxamide], the pEC50 is 6.00 to 7.00.

Consider `CC(C)(NC(=O)c1cncc(-c2cc(F)cc(F)c2)c1N1CC[C@](C)(N)C1)C1CC1` [1-40, 4-[(3S)-3-amino-3-methylpyrrolidin-1-yl]-N-(2-cyclopropylpropan-2-yl)-5-(3,5-difluorophenyl)pyridine-3-carboxamide], for which the pEC50 was 7.00 to 8.00.

As to `C[C@]1(N)CCN(c2c(C(=O)NCC3CC3(F)F)cncc2-c2cc(F)cc(F)c2)C1` (stereo partly drawn) [1-42, 4-[(3S)-3-amino-3-methylpyrrolidin-1-yl]-N-[(2,2-difluorocyclopropyl)methyl]-5-(3,5-difluorophenyl)pyridine-3-carboxamide], the pEC50 was more than 8.00.

For the compound `CC1(C)CC1CNC(=O)c1cncc(-c2cc(F)cc(F)c2)c1N1CC[C@](C)(N)C1` (stereo partly drawn) [1-43, 4-[(3S)-3-amino-3-methylpyrrolidin-1-yl]-5-(3,5-difluorophenyl)-N-[(2,2-dimethylcyclopropyl)methyl]pyridine-3-carboxamide], the pEC50 was more than 8.00.

Consider `CC(C)C(NC(=O)c1cncc(-c2cc(F)cc(F)c2)c1N1CC[C@](C)(N)C1)C(F)(F)F` (stereo partly drawn) [1-45, 4-[(3S)-3-amino-3-methylpyrrolidin-1-yl]-5-(3,5-difluorophenyl)-N-(1,1,1-trifluoro-3-methylbutan-2-yl)pyridine-3-carboxamide], for which the pEC50 was more than 8.00.
